The text below walks through data of patent EP4741395A1, “NOVEL COMPOUND SENSITIVE TO NITROGEN MONOXIDE AND PHARMACEUTICAL COMPOSITION COMPRISING SAME” (Omniamed Co. Ltd, priority 2023, dated 2025).

Series [1] in a line: Efficacy on DSS induced ulcerative colitis (disease activity index). In kind it is in vivo, mice. The method, then:
In order to establish an ulcerative colitis model, 2.5% DSS powder was mixed with drinking water and provided ad libitum. The DSS powder-containing drinking water was supplied for 5 to 6 days of disease induction period, and after that, normal drinking water was supplied.
The administered compounds of Table 21 were administered orally once daily. Hematochezia, diarrhea and body weight loss were scored according to the criteria shown in the following Table 22, and the scores were summed to calculate a disease activity index (DAI), which is shown in FIG. 4.
Efficacy of Compound (4) on ulcerative colitis was verified in the same manner as in Experimental Example 10-1, except that Compound (4) was used instead of Compound (1), and DSS was administered until day 5, and the drug was administered from day 6.

The subject of a further series is IFN-γ. As to the kind of experiment: IFN-γ reduction activity in Concanavalin A-treated splenocytes (quantitative ELISA). In kind it is cell-based, C57BL/6 mouse. As to conditions: Mus musculus, Splenocyte, Concanavalin A 5 µg/mL, 72 hours, read-out: IFN-γ Reduction Activity (%) (Mean±SD). The gist of the method:
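Splenocytes from 8-week-old C57BL/6 mice at 5×10^6 cells/mL in RPMI 1640 with 10% FBS, stimulated with Concanavalin A (5 µg/mL) plus compound added concentration-dependently. Supernatant IFN-γ measured by quantitative ELISA after 72 h.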

Series [2] is described as follows: Hematological toxicity evaluation after single oral administration (routine blood test). The settings on record: single oral dose 200 mg/kg and 800 mg/kg, compared with the normal group.
For series [3], the system named is splenocytes. Put plainly: Inhibitory activity on cell proliferation in splenocytes (CCK-8 analysis). In kind it is cell-based, C57BL/6 mouse. As to conditions: Mus musculus, Splenocyte, Concanavalin A 5 µg/mL, 72 hours, read-out: Inhibitory Activity on Cell Proliferation (%) (Mean±SD).
A short description of series [4]: HPLC analysis of nitrogen monoxide sensitivity (release of the low-molecular-weight compound). Type of series: physicochemical. As to conditions: NaNO2 / sulfuric acid, 1 hour, room temperature; FIGS. 2A to 2C. The method, then:
It was checked whether the pharmaceutical composition sensitive to nitrogen monoxide including the compound according to each of the Examples is capable of releasing a low-molecular-weight compound having pharmaceutical activity by separating a nitrogen monoxide scavenger in an environment where nitrogen monoxide is present.
A sample for HPLC analysis was prepared as follows. 28 mg of NaNO2 (0.41 mmol, 16.4 equiv) was dissolved in 0.3 mL of water, and then the mixture solution was cooled to 0°C to 5°C. After introducing 0.2 mL of sulfuric acid (0.1 mmol, 4 equiv) to the mixture solution, 12.2 mg of Compound (4) (0.025 mmol, 1 equiv), which was prepared in Example 4, dissolved in 0.2 mL of acetone was introduced thereto. The mixture solution was stirred for 1 hour at room temperature. After the reaction was finished, water and dichloromethane were introduced to the reaction solution for extraction. The organic layer was separated, then dried with magnesium sulfate, and filtered. […]
Specifically, referring to FIG. 2A, the peak of Compound (4) of Example 4, which is the pharmaceutical composition sensitive to nitrogen monoxide, was detected at 14.2 minutes. On the other hand, referring to FIG. 2B, the peak of Compound (4) disappeared in an environment where excess nitrogen monoxide is present, and a peak detected at 7.7 minutes was generated.

Series [5] relates to splenocytes. Put plainly: NO scavenging activity in Concanavalin A-treated splenocytes (Griess assay). Type of series: cell-based, C57BL/6 mouse. The settings on record: Mus musculus, Splenocyte, Concanavalin A 5 µg/mL, 72 hours, read-out: NO Scavenging Activity (%) (Mean±SD). The gist of the method:
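Splenocytes from 8-week-old C57BL/6 mice at 5×10^6 cells/mL in RPMI 1640/10% FBS, stimulated with Concanavalin A (5 µg/mL) plus […] test composition added at plating. After 72 h culture, remaining NO in supernatant measured by Griess assay.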
(Griess reagent forms a coloured azo dye with nitrite.)

For the next series, the system named is Raw 264.7 cell line. As to the kind of experiment: NO scavenging activity in LPS-treated immune cells (Griess reagent). Type of series: cell-based. The settings on record: Mus musculus, RAW264.7, Raw 264.7, LPS 500 ng/mL, 24 hours, read-out: NO Scavenging Activity (%) (Mean±SD).
The subject of a further series is IL-6 (Interleukin-6). Put plainly: Inhibition of inflammatory cytokine secretion in LPS-treated immune cells (IL-6 sandwich ELISA). Type of series: cell-based. As to conditions: Mus musculus, RAW264.7, Raw 264.7, LPS 500 ng/mL, 24 hours, read-out: IL-6 Reduction Activity (%) (Mean±SD). The protocol: Raw 264.7 cell line was seeded in a 48-well plate at a density of 8×10^4 cells/well, and cultured at 37°C in a DMEM medium including 10% FBS, 100 U/mL of penicillin and 100 µg/mL of streptomycin.
The medium was cultured overnight, and then replaced with a fresh medium including 10 µM of the pharmaceutical composition sensitive to nitrogen monoxide including the compound of each of Examples 1 and 11 to 13 and 500 ng/mL of LPS, and the fresh medium was cultured again for another 24 hours.
Lastly, the supernatant was collected, and then the level of IL-6 (Interleukin-6) expression was analyzed using a Sandwich enzyme-linked immunosorbent assay (ELISA). Specifically, a standard solution and 50 µL of the diluted supernatant were introduced to each well of a well plate coated with an antibody specific to IL-6, and after binding IL-6 to the immobilized antibody, the well was washed with a washing buffer, followed by a reaction with HRP as a secondary antibody for 30 minutes at room temperature. The well was washed three times with a washing buffer, then color was developed using TMB (3,3', 5,5'-tetramethyl benzidine) as a substrate, and the reaction was stopped using 1 M sulfuric acid to measure the degree of color development at an absorbance of 450 nm.
A general note: ELISA stands for enzyme-linked immunosorbent assay.

The target of the next series is T1, JAK 2 (Homo sapiens, UniProt O60674).
T1 construct: purchased Eurofins Scientific (assay service)
As to the kind of experiment: JAK Human TK kinase enzymatic radiometric assay (Eurofins), JAK 2. Also noted: unit not given here. The settings on record: value close to 100 indicates low JAK activity of the compound. Type of series: biochemical. The source says:
(§1) For the compounds of the Examples, JAK activity of each of the compounds was verified using the JAK Human TK Kinase Enzymatic Radiometric Kinase Profiler Assay service provided by Eurofins Scientific.
(§2) The activity was verified after inducing a reaction at the JAK 1, 2 and 3 active sites using radioactively labeled ATP.

Another series addresses JAK 1 (Homo sapiens, UniProt P23458). Put plainly: JAK Human TK kinase enzymatic radiometric assay (Eurofins), JAK 1. The settings on record: value close to 100 indicates low JAK activity of the compound.
Another series has as its target T2, JAK 3 (Homo sapiens, UniProt P52333).
T2 construct: purchased Eurofins Scientific (assay service)
T2 sequence (P52333 1-1124): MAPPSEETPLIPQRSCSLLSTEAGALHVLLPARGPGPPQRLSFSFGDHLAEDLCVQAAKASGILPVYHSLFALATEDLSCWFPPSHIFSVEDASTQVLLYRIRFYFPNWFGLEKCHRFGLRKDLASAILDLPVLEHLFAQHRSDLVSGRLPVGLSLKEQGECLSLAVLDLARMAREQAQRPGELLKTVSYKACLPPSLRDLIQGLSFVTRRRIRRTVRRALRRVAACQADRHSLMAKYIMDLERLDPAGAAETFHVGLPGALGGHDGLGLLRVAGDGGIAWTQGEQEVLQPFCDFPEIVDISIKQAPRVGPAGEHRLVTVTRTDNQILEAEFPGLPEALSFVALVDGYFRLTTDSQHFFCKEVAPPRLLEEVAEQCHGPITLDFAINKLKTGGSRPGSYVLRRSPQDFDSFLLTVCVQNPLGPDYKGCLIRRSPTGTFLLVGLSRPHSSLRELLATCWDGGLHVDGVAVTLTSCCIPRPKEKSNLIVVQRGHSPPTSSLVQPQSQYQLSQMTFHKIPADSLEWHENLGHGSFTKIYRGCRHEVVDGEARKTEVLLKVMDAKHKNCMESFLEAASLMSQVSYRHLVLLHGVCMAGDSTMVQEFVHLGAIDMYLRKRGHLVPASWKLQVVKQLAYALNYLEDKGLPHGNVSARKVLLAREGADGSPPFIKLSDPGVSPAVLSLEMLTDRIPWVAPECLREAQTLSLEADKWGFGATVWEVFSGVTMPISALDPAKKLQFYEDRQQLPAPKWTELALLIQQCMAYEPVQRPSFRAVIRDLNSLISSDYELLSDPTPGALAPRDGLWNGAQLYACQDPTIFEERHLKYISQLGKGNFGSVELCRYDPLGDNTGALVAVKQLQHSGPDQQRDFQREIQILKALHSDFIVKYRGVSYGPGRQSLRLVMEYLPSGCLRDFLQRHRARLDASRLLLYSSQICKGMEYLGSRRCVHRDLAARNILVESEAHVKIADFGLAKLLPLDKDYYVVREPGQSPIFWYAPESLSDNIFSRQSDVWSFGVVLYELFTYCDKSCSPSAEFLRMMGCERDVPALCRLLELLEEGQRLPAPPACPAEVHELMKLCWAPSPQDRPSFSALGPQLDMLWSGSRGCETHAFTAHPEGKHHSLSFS
As to the kind of experiment: JAK Human TK kinase enzymatic radiometric assay (Eurofins), JAK 3. Type of series: biochemical. Also noted: unit not given here. As to conditions: value close to 100 indicates low JAK activity of the compound.
Description: as §1, §2

T1 sequence (O60674 whole entry): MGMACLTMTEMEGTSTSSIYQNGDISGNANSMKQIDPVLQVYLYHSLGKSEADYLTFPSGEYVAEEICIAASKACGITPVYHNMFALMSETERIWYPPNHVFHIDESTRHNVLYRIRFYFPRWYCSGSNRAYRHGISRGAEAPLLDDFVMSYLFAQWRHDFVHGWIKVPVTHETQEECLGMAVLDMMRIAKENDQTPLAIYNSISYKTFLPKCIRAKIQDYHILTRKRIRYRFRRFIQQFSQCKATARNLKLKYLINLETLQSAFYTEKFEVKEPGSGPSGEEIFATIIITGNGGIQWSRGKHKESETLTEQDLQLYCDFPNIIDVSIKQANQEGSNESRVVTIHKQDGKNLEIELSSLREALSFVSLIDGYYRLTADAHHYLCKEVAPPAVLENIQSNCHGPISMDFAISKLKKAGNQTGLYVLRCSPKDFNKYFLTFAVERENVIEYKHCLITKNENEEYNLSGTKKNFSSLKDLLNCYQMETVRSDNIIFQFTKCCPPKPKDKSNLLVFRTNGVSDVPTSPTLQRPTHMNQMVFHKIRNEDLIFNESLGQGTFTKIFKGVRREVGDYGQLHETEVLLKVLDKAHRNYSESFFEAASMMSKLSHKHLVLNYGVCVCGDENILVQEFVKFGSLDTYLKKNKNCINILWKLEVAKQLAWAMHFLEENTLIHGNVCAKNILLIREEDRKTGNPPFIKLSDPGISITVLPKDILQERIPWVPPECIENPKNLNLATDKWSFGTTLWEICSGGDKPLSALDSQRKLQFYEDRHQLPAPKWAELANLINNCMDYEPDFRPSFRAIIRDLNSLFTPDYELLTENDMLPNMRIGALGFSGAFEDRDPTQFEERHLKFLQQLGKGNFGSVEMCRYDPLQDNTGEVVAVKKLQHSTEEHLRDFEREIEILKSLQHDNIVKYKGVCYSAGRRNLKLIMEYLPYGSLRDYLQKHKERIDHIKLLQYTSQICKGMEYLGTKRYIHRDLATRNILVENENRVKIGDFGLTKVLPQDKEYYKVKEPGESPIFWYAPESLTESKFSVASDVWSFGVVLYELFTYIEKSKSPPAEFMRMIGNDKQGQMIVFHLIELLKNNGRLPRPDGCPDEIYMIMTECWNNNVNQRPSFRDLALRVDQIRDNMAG
JAK 1, sequence (P23458 whole entry): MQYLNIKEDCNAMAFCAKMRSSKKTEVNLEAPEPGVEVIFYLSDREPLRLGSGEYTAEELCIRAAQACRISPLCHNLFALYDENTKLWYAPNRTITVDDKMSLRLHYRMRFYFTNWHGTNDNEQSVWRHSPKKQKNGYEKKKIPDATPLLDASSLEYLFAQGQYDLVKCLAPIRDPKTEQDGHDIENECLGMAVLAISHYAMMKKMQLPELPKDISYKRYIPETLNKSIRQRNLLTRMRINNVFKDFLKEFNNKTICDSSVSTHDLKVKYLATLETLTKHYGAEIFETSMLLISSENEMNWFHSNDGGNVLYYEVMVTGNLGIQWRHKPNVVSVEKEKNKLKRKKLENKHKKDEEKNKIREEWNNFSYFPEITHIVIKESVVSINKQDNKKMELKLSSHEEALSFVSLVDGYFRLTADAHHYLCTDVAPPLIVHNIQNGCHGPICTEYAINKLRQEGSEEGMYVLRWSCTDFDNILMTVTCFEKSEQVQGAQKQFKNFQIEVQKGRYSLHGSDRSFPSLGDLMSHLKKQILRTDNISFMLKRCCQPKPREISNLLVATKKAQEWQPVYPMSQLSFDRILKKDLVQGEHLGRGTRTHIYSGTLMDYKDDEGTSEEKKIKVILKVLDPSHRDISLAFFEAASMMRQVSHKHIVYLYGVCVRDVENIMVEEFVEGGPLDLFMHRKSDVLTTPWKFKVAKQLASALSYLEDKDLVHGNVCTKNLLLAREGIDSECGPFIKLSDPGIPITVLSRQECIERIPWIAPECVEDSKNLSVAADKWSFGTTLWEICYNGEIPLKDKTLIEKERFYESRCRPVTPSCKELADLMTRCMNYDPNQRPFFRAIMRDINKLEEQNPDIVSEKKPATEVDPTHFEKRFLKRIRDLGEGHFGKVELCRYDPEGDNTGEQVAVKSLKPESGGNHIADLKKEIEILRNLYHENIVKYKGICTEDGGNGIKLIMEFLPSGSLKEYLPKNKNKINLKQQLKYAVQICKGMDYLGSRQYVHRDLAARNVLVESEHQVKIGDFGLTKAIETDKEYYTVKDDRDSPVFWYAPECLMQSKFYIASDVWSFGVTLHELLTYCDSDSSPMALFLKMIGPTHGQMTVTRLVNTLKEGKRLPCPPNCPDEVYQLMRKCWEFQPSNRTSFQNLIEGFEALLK

Regarding `C[C@@H]1CCN(C(=O)CC#N)C[C@@H]1N(C)c1ncnc2c1ccn2C(=O)Nc1ccc(N(C)C)cc1N` [Example 4, N-(2-amino-4-(dimethylamino)phenyl)-4-(((3R,4R)-1-(2-cyanoacetyl)-4-methylpiperidin-3-yl)(methyl)amino)-7H-pyrrolo[2,3-d]pyrimidine-7-carboxamide], in [1] (25 mg/kg oral once daily, FIGS. 4 and 5), the “efficacy in alleviating ulcerative colitis compared to tofacitinib” value is on record as “comparable or more superior efficacy”. Moreover, the “efficacy on disease activity index (DAI)” value in series [1] (DSS until day 5, drug from day 6, day 9 of the test, FIG. 5) is reported as “statistically significant efficacy was observed”. Moreover, the figures for the activity at 10 µM with IFN-γ, in the series on splenocytes [5] and in the series with Raw 264.7 cell line were 98.9 ± 0.03%, 91 ± 0.01% and 68.7 ± 0.74%, respectively. For the same molecule, in series [2], the hematological toxicity responses entry is recorded as “No hematological toxicity responses were observed”. Moreover, the inhibition at 10 µM with splenocytes [3] came out at 79.5 ± 6.67%. The “release of the low-molecular-weight compound in the presence of excess nitrogen monoxide (HPLC)” value in [4] is listed as “reacted with excess nitrogen monoxide to release tofacitinib”.
Consider `COc1ccc(NC(=O)N(C(=O)n2ccc3c(N(C)[C@H]4CN(C(=O)CC#N)CC[C@H]4C)ncnc32)c2ccc(OC)cc2N)c(N)c1` [Example 13, N-(2-amino-4-methoxyphenyl)-N-((2-amino-4-methoxyphenyl)carbamoyl)-4-(((3R,4R)-1-(2-cyanoacetyl)-4-methylpiperidin-3-yl) (methyl)amino)-7H-pyrrolo[2,3-d]pyrimidine-7-carboxamide], for which the activity at 10 µM worked out at 63.1 ± 1.23% with IL-6 (Interleukin-6), 89.7 ± 0.57% in the series on IFN-γ, 66.9 ± 5.06% in the series with splenocytes [5] and 34.7 ± 0.28% in the series on Raw 264.7 cell line. Also, the “JAK 2 Activity” value is 120 at JAK 2 (0.1 nM), 107 at JAK 2 (1 nM), 102 on JAK 2 (10 nM) and 104 at JAK 2 (100 nM). In addition, the “JAK 1 Activity” value on JAK 1 (0.1 nM) is on record as 110; on JAK 1 (1 nM) it was 113; on JAK 1 (10 nM) it was 106; at JAK 1 (100 nM), 89. The inhibition at 10 µM in the series with splenocytes [3] was determined as 16.1 ± 2.7%. The “JAK 3 Activity” value on JAK 3 (0.1 nM) is recorded as 113; at JAK 3 (1 nM), 109; at JAK 3 (10 nM), 112; on JAK 3 (100 nM), 92.
